Values quoted from earlier work in US7470509B2, “Compositions and methods for the identification, assessment, prevention and therapy of ovarian cancer” (Millennium Pharmaceuticals, Inc., priority 2002, dated 2008).

System: tumor
Details: U.S. Pat. No. 5,840,929

For `CC(=O)O[C@@]12CO[C@@H]1C[C@H](O)[C@@]1(C)C(=O)[C@H](O)C3=C(C)[C@@H](OC(=O)[C@H](O)[C@@H](NC(=O)OC(C)(C)C)c4ccccc4)C[C@@](O)([C@@H](OC(=O)c4ccccc4)[C@H]21)C3(C)C` [Taxotere, docetaxel], the “anti-tumor activity in animal models” value is listed as “good anti-tumor activity”.
